Laboratory results from ChEMBL document CHEMBL1201862, “PubChem BioAssay data set” (2004).
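Where inhibition never reached the appropriate level, the endpoint shown equals the highest concentration tested. Otherwise, values were interpolated linearly from a five-concentration, 48-hour dose response in 96-well plates. GI50: concentration for 50% inhibition of growth.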 Active and inactive are the calls of the source. No stated cut-off is given here; in the data, active = GI50 up to about 1.1 µM and inactive = higher.

What was measured:
Experiment in all cases: growth of human tumour cells (NCI), 48 h
OVCAR-8 = test system: OVCAR-8
NCI-H522 = test system: NCI-H522
RPMI-8226 = test system: RPMI-8226
ACHN = test system: ACHN
UACC-257 = test system: UACC-257
NCI-H23 = test system: NCI-H23
SK-MEL-2 = test system: SK-MEL-2
U-251 = test system: U-251
SR = test system: SR
MOLT-4 = test system: MOLT-4
COLO 205 = test system: COLO 205
HOP-92 = test system: HOP-92
SW-620 = test system: SW-620
M14 = test system: M14
OVCAR-4 = test system: OVCAR-4
HL-60 = test system: HL-60
LOX IMVI = test system: LOX IMVI
RXF 393 = test system: RXF 393

Measured: GI50

O=c1[nH]nc(-c2ccccc2)c(-c2ccccc2)c1-n1nc(-c2ccccc2)c2ccccc2c1=O
inactive: OVCAR-8 92 µM | NCI-H522 34 µM | RPMI-8226 32 µM | ACHN 50.8 µM | UACC-257 > 100 µM | NCI-H23 > 100 µM | SK-MEL-2 69 µM | U-251 50.8 µM | SR 52.1 µM | MOLT-4 17 µM | COLO 205 34.6 µM | HOP-92 75.5 µM | SW-620 99.5 µM | M14 > 100 µM | OVCAR-4 > 100 µM

O=C(Nc1nnc(S)[nH]1)C(=O)C1C(=O)Nc2ccccc2[S+]1[O-] (stereo not given)
inactive: OVCAR-8 > 100 µM | NCI-H522 > 100 µM | ACHN > 100 µM | UACC-257 > 100 µM | HL-60 > 100 µM | LOX IMVI > 100 µM | NCI-H23 > 100 µM | SR > 100 µM | MOLT-4 > 100 µM | COLO 205 > 100 µM | HOP-92 > 100 µM | SW-620 > 100 µM | M14 > 100 µM | OVCAR-4 > 100 µM

O=C1N=C2Sc3ccc4ccccc4c3N2C1=O
inactive: OVCAR-8 18.4 µM | RPMI-8226 > 100 µM | ACHN 28.8 µM | UACC-257 28.1 µM | HL-60 43.6 µM | LOX IMVI 19.2 µM | NCI-H23 22.5 µM | SK-MEL-2 26.4 µM | U-251 20.5 µM | SR > 100 µM | RXF 393 20.2 µM | MOLT-4 44.4 µM | COLO 205 29.6 µM | HOP-92 15 µM | SW-620 21.4 µM | M14 26.1 µM | OVCAR-4 17 µM

CC1(C(=O)O)CCC[C@@]2(C)C1CC[C@@]1(C)c3cocc3CCC21 (stereo not given in full)
inactive: OVCAR-8 > 100 µM | RPMI-8226 > 100 µM | ACHN > 100 µM | UACC-257 > 100 µM | HL-60 > 100 µM | LOX IMVI > 100 µM | NCI-H23 > 100 µM | SK-MEL-2 > 100 µM | U-251 97.7 µM | SR > 100 µM | RXF 393 > 100 µM | MOLT-4 > 100 µM | COLO 205 > 100 µM | HOP-92 > 100 µM | SW-620 > 100 µM | M14 > 100 µM | OVCAR-4 > 100 µM

COc1ccccc1/C=C(\NC(=O)c1ccccc1)c1nc2ccc(Cl)cc2[nH]1
inactive: OVCAR-8 22.8 µM | NCI-H522 15.6 µM | RPMI-8226 9.64 µM | ACHN 21.5 µM | UACC-257 32.7 µM | LOX IMVI 37.2 µM | NCI-H23 22.2 µM | SK-MEL-2 25.6 µM | U-251 30.5 µM | RXF 393 22.4 µM | MOLT-4 15.2 µM | COLO 205 19.1 µM | HOP-92 22.7 µM | SW-620 29.9 µM | M14 34.9 µM | OVCAR-4 22.9 µM

COc1ccc2oc(-c3ccc(OC)c(OC)c3OC)cc(=O)c2c1
inactive: NCI-H522 18.8 µM | RPMI-8226 17 µM | ACHN 61.8 µM | UACC-257 55.6 µM | HL-60 18.6 µM | LOX IMVI 46.8 µM | NCI-H23 43.3 µM | SK-MEL-2 22.9 µM | RXF 393 22.4 µM | COLO 205 52 µM | HOP-92 50.6 µM | SW-620 65.2 µM | M14 55.3 µM | OVCAR-4 38.7 µM

CC1/C=C/[C@@]2(C)CCC(C(C)(C)O)C2C(O)C[C@](C)(O)/C=C/C1 (stereo not given in full)
inactive: OVCAR-8 > 100 µM | RPMI-8226 > 100 µM | ACHN > 100 µM | UACC-257 > 100 µM | HL-60 86.1 µM | LOX IMVI > 100 µM | NCI-H23 > 100 µM | SK-MEL-2 > 100 µM | U-251 > 100 µM | SR 66.5 µM | RXF 393 > 100 µM | MOLT-4 > 100 µM | COLO 205 > 100 µM | HOP-92 > 100 µM | SW-620 > 100 µM | M14 > 100 µM | OVCAR-4 > 100 µM

N=C1SCCS1
inactive: OVCAR-8 > 100 µM | NCI-H522 > 100 µM | RPMI-8226 > 100 µM | ACHN > 100 µM | UACC-257 > 100 µM | HL-60 > 100 µM | LOX IMVI > 100 µM | NCI-H23 > 100 µM | SK-MEL-2 > 100 µM | U-251 > 100 µM | MOLT-4 > 100 µM | COLO 205 > 100 µM | HOP-92 59 µM | SW-620 > 100 µM | M14 > 100 µM | OVCAR-4 > 100 µM

CCCCCCCCCCCCCC(=O)OCC1OC(OC)C(NC(=O)N(CCCl)N=O)C(O)C1O (stereo not given)
inactive: OVCAR-8 21.8 µM | NCI-H522 > 10 µM | RPMI-8226 11.4 µM | ACHN 10.5 µM | UACC-257 14.2 µM | LOX IMVI 10.1 µM | NCI-H23 12.9 µM | SK-MEL-2 38.1 µM | U-251 12.6 µM | SR 3.71 µM | RXF 393 16.4 µM | MOLT-4 2.06 µM | COLO 205 21.9 µM | SW-620 8.79 µM | M14 17.2 µM | OVCAR-4 20.6 µM

C[N+](C)(C)CC(=O)N/N=C(/Cc1nc2ccc(Cl)cc2nc1O)C1=NS(=O)(=O)c2cc(S(N)(=O)=O)c(Cl)cc2N1
inactive: OVCAR-8 > 100 µM | NCI-H522 > 100 µM | RPMI-8226 > 100 µM | ACHN > 100 µM | UACC-257 > 100 µM | HL-60 > 100 µM | NCI-H23 > 100 µM | SK-MEL-2 > 100 µM | SR > 100 µM | RXF 393 > 100 µM | MOLT-4 > 100 µM | COLO 205 > 100 µM | SW-620 > 100 µM | OVCAR-4 > 100 µM

CC1(C)COC(C23C4C5C2C2C3C4C52I)=N1 (stereo not given)
inactive: OVCAR-8 > 100 µM | RPMI-8226 > 100 µM | ACHN > 100 µM | UACC-257 > 100 µM | NCI-H23 > 100 µM | U-251 > 100 µM | RXF 393 > 100 µM | MOLT-4 > 100 µM | COLO 205 > 100 µM | HOP-92 > 100 µM | SW-620 > 100 µM | M14 > 100 µM | OVCAR-4 > 100 µM

CC1=CCN(c2ccccn2)OC1c1ccccc1 (stereo not given)
inactive: OVCAR-8 > 100 µM | NCI-H522 54.6 µM | RPMI-8226 66.8 µM | ACHN > 100 µM | UACC-257 > 100 µM | HL-60 66.8 µM | LOX IMVI > 100 µM | NCI-H23 > 100 µM | SK-MEL-2 > 100 µM | U-251 > 100 µM | SR 59.3 µM | RXF 393 62.8 µM | MOLT-4 > 100 µM | COLO 205 > 100 µM | SW-620 > 100 µM | M14 > 100 µM | OVCAR-4 > 100 µM

O=C1/C(=C\c2ccccc2)c2ccccc2N1/N=C\c1ccccc1
inactive: OVCAR-8 > 100 µM | RPMI-8226 57.3 µM | ACHN > 100 µM | UACC-257 > 100 µM | LOX IMVI > 100 µM | NCI-H23 > 100 µM | SK-MEL-2 > 100 µM | U-251 > 100 µM | MOLT-4 22.5 µM | COLO 205 > 100 µM | HOP-92 > 100 µM | SW-620 59 µM | M14 > 100 µM | OVCAR-4 > 100 µM
